{"source": "patent US6670362B2", "about": "“Pyridazine endothelin antagonists” (Pfizer Inc., priority 2000, dated 2003)", "key": {"ETB receptors": {"molecular_target": "T1, ETB receptors (Homo sapiens, UniProt P24530)", "T1 construct": "host or cells: man (in vivo)", "T1 sequence (P24530 27-442)": "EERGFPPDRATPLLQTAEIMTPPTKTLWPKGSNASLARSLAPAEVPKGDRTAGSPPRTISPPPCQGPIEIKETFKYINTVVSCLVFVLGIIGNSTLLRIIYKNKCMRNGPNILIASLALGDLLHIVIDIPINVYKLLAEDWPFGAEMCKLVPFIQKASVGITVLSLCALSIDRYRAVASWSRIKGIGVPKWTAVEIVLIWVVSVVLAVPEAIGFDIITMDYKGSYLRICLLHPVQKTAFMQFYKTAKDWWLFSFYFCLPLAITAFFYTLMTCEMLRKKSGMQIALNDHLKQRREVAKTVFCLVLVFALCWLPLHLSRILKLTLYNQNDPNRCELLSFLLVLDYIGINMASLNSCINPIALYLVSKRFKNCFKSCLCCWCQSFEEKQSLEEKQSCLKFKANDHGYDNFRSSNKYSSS", "details": "in man; Hypertension, 1999, 33, 581-585; cited from earlier work"}, "ETA/B receptor": {"system": "ETA/B receptor", "details": "hypertensive patients; H. Krum et al., 1998; cited from earlier work"}, "dog ETB": {"molecular_target": "T2, dog ETB (Canis lupus familiaris, UniProt P56497)", "T2 construct": "50 μg of purified Dog cerebellum homogenate is added; from tissue; host or cells: dog cerebellum homogenate", "T2 sequence (P56497 27-442)": "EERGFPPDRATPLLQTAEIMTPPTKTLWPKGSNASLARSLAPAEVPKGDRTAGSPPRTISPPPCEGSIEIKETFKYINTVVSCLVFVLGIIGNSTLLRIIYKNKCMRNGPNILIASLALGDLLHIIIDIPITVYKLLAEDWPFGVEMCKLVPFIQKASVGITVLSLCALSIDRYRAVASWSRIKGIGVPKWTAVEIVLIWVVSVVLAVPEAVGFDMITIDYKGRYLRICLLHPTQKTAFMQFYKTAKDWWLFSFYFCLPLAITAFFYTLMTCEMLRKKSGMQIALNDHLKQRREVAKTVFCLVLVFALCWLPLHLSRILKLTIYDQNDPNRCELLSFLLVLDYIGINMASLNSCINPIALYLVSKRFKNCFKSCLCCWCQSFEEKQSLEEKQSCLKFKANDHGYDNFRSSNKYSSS", "assay": "Dog ETB Binding Assay (125I-IRL-1620, dog cerebellum homogenate)", "protocol": "(§1) Competition between test substances and ligands binding to canine endothelin receptors is determined as follows: […] The solution is incubated at 30° C. for 90 minutes. After the incubation, the unbound ligand is separated from receptor bound ligand by filtration with a Brandel cell harvester, followed by 5 washes with buffer (Tris 50 mM, MgCl2 10 mM). Filter papers are counted for radioactivity and the Ki (an IC50 corrected for the dissociation constant and concentration of the ligand added) is determined for the concentration range tested."}, "dog ETA receptor": {"molecular_target": "T3, dog ETA receptor (Canis lupus familiaris, UniProt Q5KSU9)", "T3 construct": "100 μg of purified dog kidney homogenate is added; from tissue; host or cells: dog kidney homogenate", "T3 sequence (Q5KSU9 21-426)": "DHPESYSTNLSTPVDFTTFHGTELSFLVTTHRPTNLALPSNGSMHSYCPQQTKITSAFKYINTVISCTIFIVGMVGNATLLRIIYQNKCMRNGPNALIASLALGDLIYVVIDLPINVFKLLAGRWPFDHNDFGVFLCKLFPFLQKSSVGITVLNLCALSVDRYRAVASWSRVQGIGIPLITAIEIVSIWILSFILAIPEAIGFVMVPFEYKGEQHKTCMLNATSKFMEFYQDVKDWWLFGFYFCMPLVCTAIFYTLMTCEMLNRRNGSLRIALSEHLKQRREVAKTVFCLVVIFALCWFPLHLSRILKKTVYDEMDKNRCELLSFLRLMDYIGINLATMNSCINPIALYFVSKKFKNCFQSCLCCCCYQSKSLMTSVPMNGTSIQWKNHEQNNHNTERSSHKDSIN", "assay": "Dog ETA Binding Assay (125I-PD-151242, dog kidney homogenate)", "protocol": "as §1, with “room temperature” for “30° C.”, “2 hours.” for “90 minutes.”"}, "neointimal formation": {"system": "neointimal formation", "details": "S. Douglas et al., Circ. Res., 1994; cited from earlier work"}}, "data": [{"smiles": "CCCC[C@@H](NC(=O)[C@@H](Cc1cn(C(=O)OC)c2ccccc12)NC(=O)[C@H](CC(C)(C)C)NC(=O)N1[C@H](C)CCC[C@@H]1C)C(=O)O", "note": "[BQ-788]", "values": [{"measurement": "peripheral resistance", "setting": "ETB receptors", "result": "increase peripheral resistance"}]}, {"smiles": "COc1ccccc1Oc1c(NS(=O)(=O)c2ccc(C(C)(C)C)cc2)nc(-c2ncccn2)nc1OCCO", "note": "[Bosentan]", "values": [{"measurement": "blood pressure", "setting": "ETA/B receptor", "result": "decreased blood pressure"}]}, {"smiles": "COc1ccccc1Oc1c(NS(=O)(=O)CCc2ccccc2)nc(-c2cccnn2)nc1OC", "note": "[Example 5]", "values": [{"measurement": "Ki", "setting": "dog ETB", "result": 132, "unit": "nM"}, {"measurement": "Ki", "setting": "dog ETA receptor", "result": 2, "unit": "nM"}]}, {"smiles": "CCCOc1ccc2c(c1)[C@@H](c1ccc(OC)cc1OCC(=O)O)[C@H](C(=O)O)[C@H]2c1ccc2c(c1)OCO2", "note": "[SB-209670]", "values": [{"measurement": "reduction in neointimal formation relative to control animals", "setting": "neointimal formation", "result": 50, "unit": "%"}]}]}
